According to patent US8658649B2, “Kinase inhibitor” (Sanofi, priority 2006, dated 2014):
Where “and” joins values, the source holds several entries; their conditions need not be identical. Equal values may be shown once.

Tests used:
[1] = system: Collagen-induced arthritis (CIA); assay: Rat collagen induced arthritis, combination dosing with Methotrexate; format: in vivo
Protocol: Immunization and Challenge: Female Lewis rats were immunized on day 0 and challenged on day 7 with cII from bovine nasal mixed with Freund's incomplete adjuvant at a final collagen concentration of 1.0 mg/ml. The animals were injected at the base of the tail with 400 μg of cII. Combination Dosing Regimen: Rats were dosed with the compound of Formula I (3.0 and 10 mg/kg, p.o., bi.d.) or Methotrexate (MTX, 0.1 and 0.2 mg/kg, p.o., q.d.) as monotherapy or in combinations consisting of each dose of the compound of Formula I with each dose of MTX starting on day 6 and continuing through day 21. Joint Pathology Ankle joint swelling was measured to the nearest 0.01 mm by using electronic digital calipers. Measurements were recorded 7 times throughout the study starting on day 6 and ending on day 21. Body weights were recorded on the same days. On day 21, hind paws were removed at the hairline just above the ankle and fixed in 10% neutral buffered formalin. MicroCT analysis: Ankle joints were examined using a cone-beam μCT scanner. A scout view scan was obtained first for selection of the examination volume of the specimens, followed by positioning, measurement and computational reconstruction. In ankle joints, the ratio of bone surface to bone volume, describing the complexity of bone surface in a certain volume, was analyzed. Statistical Analysis For joint swelling/inflammation, data were analyzed using Everstat v.5 software and a 2-way repeated measure ANOVA with Dunnett's post test. MicroCT data were analyzed by Everstat using a 1-way ANOVA and Newman-Keuls multiple comparison test.

DLCL-2 = assay: Viability assay of liquid tumor cell lines (MTS); format: cell-based; settings: DLCL-2 (B-NHL), N = 4
Protocol: (§1) This method is to determine the viability of a liquid tumor cell line following treatment with a test compound. Tumor cells are maintained in suspension at log phase growth. On the day of use, cells are resuspended to a density of 0.05 to 0.1 million/ml and cells are incubated in 96 well plate with the test compounds for 96 hours. Viability of cells was measured by incubating cells with Promega's MTS reagent. The viability of the cell is proportional to the change in absorbance at 490 nm. By comparing the absorbance between control and compound-treated cells, the impact of the test compounds on the cell viability is determined as a percent of the control cell viability.
(§2) Harvest cells in complete RPMI from log-phase cultures at densities of approximately 0.3-0.7 million/ml. Count cells and adjust to 0.1 million/ml in phenol red free cRPMI (For fast growing cells with doubling time of equal or less than 24 hours, e.g. K562, use 0.05 million/ml instead to avoid over-growing).
(§3) Transfer triplicates of 100 μl of cells to the wells of 96-well clear plates for a total of 10000 cells/well. Note that each well already contains 10 μl of 10× concentrated test compound prepared as above.
(§4) Incubate cells for 72-96 hours at 37° C. in a tissue culture incubator containing 5% CO2.
(§5) 1. Thaw the Promega's MTS reagent and add 20 ul to each well with a repeat pipetor.
(§6) 4. Incubate at 370 C until the absorbance at 490 nm for the control cells is >1.5.
(§7) 5. Calculate the averaged compound-treated cell data as a percent of the averaged control cell data as follows: (Compound-treated value/control value)*100=% of control value Results: […]

Nalm-6 = assay: Viability assay of liquid tumor cell lines (MTS); format: cell-based; settings: Nalm-6 (B-ALL), N = 4
Protocol: as §1, §2, §3, §4, §5, §6, §7

Jurl-MK1 = assay: Viability assay of liquid tumor cell lines (MTS); format: cell-based; settings: Jurl-MK1 (CML), N = 4
Protocol: as §1, §2, §3, §4, §5, §6, §7

Jeko-1 = assay: Viability assay of liquid tumor cell lines (MTS); format: cell-based; settings: Jeko-1 (MCL), N = 4
Protocol: as §1, §2, §3, §4, §5, §6, §7

L-363 = assay: Viability assay of liquid tumor cell lines (MTS); format: cell-based; settings: L-363 (MM), N = 4
Protocol: as §1, §2, §3, §4, §5, §6, §7

HL-60 = assay: Viability assay of liquid tumor cell lines (MTS); format: cell-based; settings: HL-60 (AML), N = 4
Protocol: as §1, §2, §3, §4, §5, §6, §7

JVM-2 = assay: Viability assay of liquid tumor cell lines (MTS); format: cell-based; settings: JVM-2 (B-CLL), N = 4, listed as A003397769, 10 µM
Protocol: as §1, §2, §3, §4, §5, §6, §7

K562 = assay: Viability assay of liquid tumor cell lines (MTS); format: cell-based; settings: K562 (CML), N = 4
Protocol: as §1, §2, §3, §4, §5, §6, §7

DOHH-2 = assay: Viability assay of liquid tumor cell lines (MTS); format: cell-based; settings: DOHH-2 (B-NHL), N = 4
Protocol: as §1, §2, §3, §4, §5, §6, §7

RPMI8226 = assay: Viability assay of liquid tumor cell lines (MTS); format: cell-based; settings: RPMI8226 (MM), N = 4
Protocol: as §1, §2, §3, §4, §5, §6, §7

Jurkat = assay: Viability assay of liquid tumor cell lines (MTS); format: cell-based; settings: Jurkat (T-ALL), N = 4; for IC50: MTS assay
Protocol: as §1, §2, §3, §4, §5, §6, §7

ML-2 = assay: Viability assay of liquid tumor cell lines (MTS); format: cell-based; settings: ML-2 (AML), N = 4
Protocol: as §1, §2, §3, §4, §5, §6, §7

KG-1 = assay: Viability assay of liquid tumor cell lines (MTS); format: cell-based; settings: KG-1 (AML), N = 4
Protocol: as §1, §2, §3, §4, §5, §6, §7

Granta-519 = assay: Viability assay of liquid tumor cell lines (MTS); format: cell-based; settings: Granta-519 (MCL), N = 4
Protocol: as §1, §2, §3, §4, §5, §6, §7

CCc1c(-c2ccc(C(C)(C)O)cc2)[nH]c2nccnc12 [compound of Formula I, 2-[4-(7-Ethyl-5H-pyrrolo[2,3-b]pyrazin-6-yl)-phenyl]-propan-2-ol]
disease severity as measured by joint swelling/inflammation ([1]; 3.0 mg/kg monotherapy): failed to significantly impact on disease severity | bone erosion, MicroCT ([1]; 3 mg/kg monotherapy, vs vehicle): significant decrease was not observed | ankle swelling/inflammation ([1]; 10 mg/kg monotherapy, vs vehicle, days 15 through 21): significantly reduced ankle swelling/inflammation | bone erosion, MicroCT ([1]; 10 mg/kg po bid monotherapy, vs vehicle): significant decrease in bone erosion | % Inhibition at max. conc. (10 uM) (DLCL-2): 0% | IC50 (Nalm-6; Homo sapiens, MTS assay): 5.5 µM | % Inhibition at max. conc. (10 uM) (Nalm-6; 10 uM): 84% | % Inhibition at max. conc. (10 uM) (Jurl-MK1): 28% | IC50 (Jeko-1; Homo sapiens, MTS assay): 3.1 µM | % Inhibition at max. conc. (10 uM) (Jeko-1; 10 uM): 97% | IC50 (L-363; Homo sapiens, MTS assay): 5.5 µM | % Inhibition at max. conc. (10 uM) (L-363; 10 uM): 61% | % Inhibition at max. conc. (10 uM) (HL-60): 35% | % Inhibition at max. conc. (10 uM) (JVM-2): 60% and 59% | % Inhibition at max. conc. (10 uM) (K562): 21% | % Inhibition at max. conc. (10 uM) (DOHH-2; 10 uM): 75% | IC50 (DOHH-2; Homo sapiens, MTS assay): 4.5 µM | IC50 (RPMI8226; Homo sapiens, RPMI-8226, MTS assay): > 10 µM | % Inhibition at max. conc. (10 uM) (RPMI8226; 10 uM): 36% | IC50 (Jurkat; Homo sapiens, Jurkat): 6.8 µM | % Inhibition at max. conc. (10 uM) (Jurkat; 10 uM): 43% | IC50 (Jurkat; listed as A003397769): > 10 µM | IC50 (ML-2; Homo sapiens, MTS assay): > 10 µM | % Inhibition at max. conc. (10 uM) (ML-2; 10 uM): 28% | IC50 (KG-1; Homo sapiens, MTS assay): 1.9 µM | % Inhibition at max. conc. (10 uM) (KG-1; 10 uM): 91% | % Inhibition at max. conc. (10 uM) (Granta-519; 10 uM): 67% | IC50 (Granta-519; Homo sapiens, MTS assay): 3.4 µM
